Read-outs that look alike come from different tables or passages of the source.

Common to all, as to type: cell-based
Test [1] concerns Colletotrichum orbiculare. Set-up: key to Plate antimicrobial activity test Colletotrichum orbiculare, level: a case where hyphae extended to the entire well and no antimicrobial activity was found is defined as “level 0,”; a case where hyphae extended to less than a half of the well and thus the peptide inhibited the growth of the hyphae is defined as “level 1,”; a case where ungerminated spores were present and the peptide partially inhibited the germination is defined as “level 2,”; a case where all spores were ungerminated and the peptide completely inhibited the germination is defined as “level 3.”. The note with it: 25° C. for 1 day or 2 days, microscopic observation.

The next test deals with Fusarium oxysporum. On the set-up: key to Plate antimicrobial activity test Fusarium oxysporum, level: a case where hyphae extended to the entire well and no antimicrobial activity was found is defined as “level 0,”; a case where hyphae extended to less than a half of the well and thus the peptide inhibited the growth of the hyphae is defined as “level 1,”; a case where ungerminated spores were present and the peptide partially inhibited the germination is defined as “level 2,”; a case where all spores were ungerminated and the peptide completely inhibited the germination is defined as “level 3.”.

The subject of another test is Pyricularia oryzae. Set-up: key to Plate antimicrobial activity test Pyricularia oryzae, level: a case where hyphae extended to the entire well and no antimicrobial activity was found is defined as “level 0,”; a case where hyphae extended to less than a half of the well and thus the peptide inhibited the growth of the hyphae is defined as “level 1,”; a case where ungerminated spores were present and the peptide partially inhibited the germination is defined as “level 2,”; a case where all spores were ungerminated and the peptide completely inhibited the germination is defined as “level 3.”. The note with it: 25° C. for 1 day or 2 days, microscopic observation.

The subject of test [2] is Colletotrichum destructivum. Set-up: key to Plate antimicrobial activity test Colletotrichum destructivum, level: a case where hyphae extended to the entire well and no antimicrobial activity was found is defined as “level 0,”; a case where hyphae extended to less than a half of the well and thus the peptide inhibited the growth of the hyphae is defined as “level 1,”; a case where ungerminated spores were present and the peptide partially inhibited the germination is defined as “level 2,”; a case where all spores were ungerminated and the peptide completely inhibited the germination is defined as “level 3.”. The note with it: 25° C. for 1 day or 2 days, microscopic observation.

The test system of another test is Botrytis cinerea. On the set-up: key to Plate antimicrobial activity test Botrytis cinerea, level: a case where hyphae extended to the entire well and no antimicrobial activity was found is defined as “level 0,”; a case where hyphae extended to less than a half of the well and thus the peptide inhibited the growth of the hyphae is defined as “level 1,”; a case where ungerminated spores were present and the peptide partially inhibited the germination is defined as “level 2,”; a case where all spores were ungerminated and the peptide completely inhibited the germination is defined as “level 3.”. The note with it: 25° C. for 1 day or 2 days, microscopic observation.

Consider “NKKVA (listed as Solanum lycopersicum) [TsORF6-1-5aa-13, partial peptide of TsORF6-1, 5 amino acid residues]”, for which the “Plate antimicrobial activity test Colletotrichum orbiculare, level” value in test [1] (peptide 1 μM), in test [1] (peptide 10 μM) and in test [1] (peptide 100 μM) was 0 in each case. For the same substance, in the test with Fusarium oxysporum, the “Plate antimicrobial activity test Fusarium oxysporum, level” value is on record as 0. Also, the “Plate antimicrobial activity test Pyricularia oryzae, level” value with Pyricularia oryzae (peptide 1 μM), in the test on Pyricularia oryzae (peptide 10 μM) and in the test with Pyricularia oryzae (peptide 100 μM) was 0 throughout. Also, the “Plate antimicrobial activity test Colletotrichum destructivum, level” value in test [2] (peptide 1 μM), in test [2] (peptide 10 μM) and in test [2] (peptide 100 μM) was 0 throughout. Moreover, the “Plate antimicrobial activity test Botrytis cinerea, level” value with Botrytis cinerea (peptide 1 μM), in the test on Botrytis cinerea (peptide 10 μM) and with Botrytis cinerea (peptide 100 μM) was 0 in each case.
Take “KTKVKNKK (listed as Solanum lycopersicum) [TsORF6-1-8aa-8, partial peptide of TsORF6-1, 8 amino acid residues]”: the “Plate antimicrobial activity test Colletotrichum orbiculare, level” value in test [1] (peptide 1 μM), in test [1] (peptide 10 μM) and in test [1] (peptide 100 μM) was 0 throughout. Moreover, the “Plate antimicrobial activity test Fusarium oxysporum, level” value in the test on Fusarium oxysporum is given as 0. In addition, the “Plate antimicrobial activity test Pyricularia oryzae, level” value with Pyricularia oryzae (peptide 1 μM), with Pyricularia oryzae (peptide 10 μM) and with Pyricularia oryzae (peptide 100 μM) was 0 in each case. For the same substance, the “Plate antimicrobial activity test Colletotrichum destructivum, level” value in test [2] (peptide 1 μM), in test [2] (peptide 10 μM) and in test [2] (peptide 100 μM) was 0 each time. Moreover, the “Plate antimicrobial activity test Botrytis cinerea, level” value is reported as 0 with Botrytis cinerea (peptide 1 μM), 0 in the test on Botrytis cinerea (peptide 10 μM) and 1 with Botrytis cinerea (peptide 100 μM).
Turning to “VKTKVKNK (listed as Solanum lycopersicum) [TsORF6-1-8aa-7, partial peptide of TsORF6-1, 8 amino acid residues]”, the “Plate antimicrobial activity test Colletotrichum orbiculare, level” value in test [1] (peptide 1 μM), in test [1] (peptide 10 μM) and in test [1] (peptide 100 μM) was 0 throughout. Besides, in the test on Fusarium oxysporum, the “Plate antimicrobial activity test Fusarium oxysporum, level” value is 0. Besides, the “Plate antimicrobial activity test Pyricularia oryzae, level” value in the test on Pyricularia oryzae (peptide 1 μM), with Pyricularia oryzae (peptide 10 μM) and in the test with Pyricularia oryzae (peptide 100 μM) was 0 in each case. Further, the “Plate antimicrobial activity test Colletotrichum destructivum, level” value in test [2] (peptide 1 μM), in test [2] (peptide 10 μM) and in test [2] (peptide 100 μM) was 0 throughout. The “Plate antimicrobial activity test Botrytis cinerea, level” value in the test with Botrytis cinerea (peptide 1 μM), in the test on Botrytis cinerea (peptide 10 μM) and with Botrytis cinerea (peptide 100 μM) was 0 throughout.
In the case of “NKKVAKMM (listed as Solanum lycopersicum) [TsORF6-1-8aa-13, partial peptide of TsORF6-1, 8 amino acid residues]”, the “Plate antimicrobial activity test Colletotrichum orbiculare, level” value in test [1] (peptide 1 μM), in test [1] (peptide 10 μM) and in test [1] (peptide 100 μM) was 0 throughout. For the same substance, in the test on Fusarium oxysporum, the “Plate antimicrobial activity test Fusarium oxysporum, level” value amounted to 0. The “Plate antimicrobial activity test Pyricularia oryzae, level” value with Pyricularia oryzae (peptide 1 μM), with Pyricularia oryzae (peptide 10 μM) and in the test with Pyricularia oryzae (peptide 100 μM) was 0 each time. Also, the “Plate antimicrobial activity test Colletotrichum destructivum, level” value in test [2] (peptide 1 μM), in test [2] (peptide 10 μM) and in test [2] (peptide 100 μM) was 0 in each case. Moreover, the “Plate antimicrobial activity test Botrytis cinerea, level” value in the test with Botrytis cinerea (peptide 1 μM), in the test on Botrytis cinerea (peptide 10 μM) and with Botrytis cinerea (peptide 100 μM) was 0 each time.

(Values after patent US12396461B2, “Functional peptides having antimicrobial activity against phytopathogenic microorganisms” (TOYOTA JIDOSHA KABUSHIKI KAISHA, priority 2019, dated 2025).)
